From ChEMBL document CHEMBL4680211, “Synthesis and structure-activity relationship study of water-soluble carbazole sulfonamide derivatives as new anticancer agents” (Eur J Med Chem, 2020)

Columns and labels:
HepG2 [1] = experiment: Antiproliferative activity against human HepG2 cells measured after 48 hrs by SRB assay; format: functional, cell-based; settings: Homo sapiens, HepG2, 48 h
Bel-7402 = experiment: Antiproliferative activity against human Bel-7402 cells measured after 48 hrs by SRB assay; format: functional, cell-based; settings: Homo sapiens, Bel-7402, 48 h
MCF7 = experiment: Antiproliferative activity against human MCF7 cells measured after 48 hrs by SRB assay; format: functional, cell-based; settings: Homo sapiens, MCF7, 48 h
[2] = Acute toxicity in ip dosed Kunming mouse measured for 7 days; format: organism-based; settings: in vivo, time 7 day
HepG2 [3] = experiment: Antitumor activity against human HepG2 cells xenografted in BALB/c nude mouse assessed as tumor growth inhibition at 25 mg/kg, ip qod for 29 days by caliper method relative to control; format: functional; settings: 696 h, time 29 day, read-out: TGI
[4] = Elimination half life in Sprague-Dawley rat at 2.5 mg/kg, iv; format: ADME, organism-based; settings: in vivo, read-out: beta t1/2 (converted)
[5] = Volume of distribution at steady state in Sprague-Dawley rat at 2.5 mg/kg, iv; format: ADME, organism-based; settings: in vivo, read-out: Vdss
[6] = AUC (0 to last) in Sprague-Dawley rat at 2.5 mg/kg, iv; format: ADME, organism-based; design: time 0 - last, route intravenous, dose 2.5 mg/kg; settings: in vivo
[7] = MRT (0 to last) in Sprague-Dawley rat at 2.5 mg/kg, iv; format: ADME, organism-based; settings: in vivo
MDA-MB-231 = experiment: Antitumor activity against human MDA-MB-231 cells xenografted in BALB/c nude mouse assessed as reduction in tumor burden at 60 mg/kg, ip biw for 14 to 29 days relative to control; format: functional; design: scale not given: the % may be the effect or the level left; settings: time 14-29 day
[8] = Toxicity in human MDA-MB-231 cells xenografted BALB/c nude mouse assessed as effect on body weight at 60 mg/kg, ip biw for 14 to 29 days measured every two days during compound dosing; format: organism-based; settings: in vivo, time 14-29 day
HepG2 [9] = experiment: Antitumor activity against GFP-labelled human HepG2 cells xenografted in BALB/c nude mouse assessed as tumor growth inhibition at 10 mg/kg, iv administered once per week for 29 days relative to control; format: functional; settings: 696 h, time 29 day, read-out: TGI
[10] = Toxicity in GFP-labelled human HepG2 cells xenografted BALB/c nude mouse assessed as change in animal weight at 10 mg/kg, iv administered once per week for 29 days; format: organism-based; settings: in vivo, 696 h, time 29 day
HepG2 [11] = experiment: Antitumor activity against human HepG2 cells xenografted in BALB/c nude mouse assessed as tumor growth inhibition at 10 mg/kg, iv administered once per week for 29 days by caliper method relative to control; format: functional; design: scale not given: the % may be the effect or the level left; settings: time 29 day
[12] = Cmax in Sprague-Dawley rat assessed as N-(2,6-dimethoxypyridin-3-yl)-7-hydroxy-9-methyl-9H-carbazole-3-sulfonamide level at 2.5 mg/kg, iv; format: ADME, organism-based; design: route intravenous, dose 2.5 mg/kg; settings: in vivo
[13] = Tmax in Sprague-Dawley rat assessed as N-(2,6-dimethoxypyridin-3-yl)-7-hydroxy-9-methyl-9H-carbazole-3-sulfonamide level at 2.5 mg/kg, iv; format: ADME, organism-based; settings: in vivo
[14] = Terminal half life in Sprague-Dawley rat assessed as N-(2,6-dimethoxypyridin-3-yl)-7-hydroxy-9-methyl-9H-carbazole-3-sulfonamide level at 2.5 mg/kg, iv; format: ADME, organism-based; settings: in vivo
[15] = AUC (0 to last) in Sprague-Dawley rat assessed as N-(2,6-dimethoxypyridin-3-yl)-7-hydroxy-9-methyl-9H-carbazole-3-sulfonamide level at 2.5 mg/kg, iv; format: ADME, organism-based; design: route intravenous, time 0 - last, dose 2.5 mg/kg; settings: in vivo
[16] = MRT (0 to last) in Sprague-Dawley rat assessed as N-(2,6-dimethoxypyridin-3-yl)-7-hydroxy-9-methyl-9H-carbazole-3-sulfonamide level at 2.5 mg/kg, iv; format: ADME, organism-based; settings: in vivo
[17] = Acute toxicity in Kunming mouse assessed as survival at 100 mg/kg, iv measured for 7 days relative to control; format: organism-based; settings: in vivo, time 7 day
[18] = Acute toxicity in Kunming mouse assessed as survival at 80 mg/kg, iv measured for 7 days relative to control; format: organism-based; settings: in vivo, time 7 day
[19] = Acute toxicity in Kunming mouse assessed as survival at 60 mg/kg, iv measured for 7 days relative to control; format: organism-based; settings: in vivo, time 7 day
[20] = Acute toxicity in Kunming mouse assessed as survival at 40 mg/kg, iv measured for 7 days relative to control; format: organism-based; settings: in vivo, time 7 day
[21] = Acute toxicity in iv dosed Kunming mouse measured for 7 days; format: organism-based; settings: in vivo, time 7 day
HepG2 [22] = experiment: Antitumor activity against human HepG2 cells xenografted in BALB/c nude mouse assessed as tumor volume at 10 mg/kg, iv qod for 14 to 29 days measured on day 1 (reference value: 154.04 +/- 3120); format: functional; settings: time 14-29 day
HepG2 [23] = experiment: Antitumor activity against human HepG2 cells xenografted in BALB/c nude mouse assessed as tumor volume at 10 mg/kg, iv qod for 14 to 29 days measured on day 29 (reference value: 2,838.93 +/- 737.40); format: functional; settings: time 14-29 day
HepG2 [24] = experiment: Antitumor activity against human HepG2 cells xenografted in BALB/c nude mouse assessed as tumor growth inhibition at 10 mg/kg, iv qod for 14 to 29 days relative to control; format: functional; settings: time 14-29 day, read-out: TGI
[25] = Toxicity in human HepG2 cells xenografted BALB/c nude mouse assessed as change in tumor weight at 10 mg/kg, iv qod for 14 to 29 days (reference value: 4.52 g); format: organism-based; settings: in vivo, time 14-29 day
HepG2 [26] = experiment: Antitumor activity against human HepG2 cells xenografted in BALB/c nude mouse assessed as tumor growth inhibition at 5 mg/kg, iv qod for 14 to 29 days relative to control; format: functional; settings: time 14-29 day, read-out: TGI
HepG2 [27] = experiment: Antitumor activity against GFP-labelled human HepG2 cells xenografted in BALB/c nude mouse assessed as tumor growth inhibition at 10 mg/kg, iv qod for 29 days relative to control; format: functional; settings: 696 h, time 29 day, read-out: TGI
[28] = Toxicity in GFP-labelled human HepG2 cells xenografted BALB/c nude mouse assessed as change in animal weight at 10 mg/kg, iv qod for 29 days; format: organism-based; settings: in vivo, 696 h, time 29 day
[29] = Acute toxicity in po dosed Kunming mouse measured for 7 days; format: organism-based; settings: in vivo, time 7 day
HepG2 [30] = experiment: Antitumor activity against human HepG2 cells xenografted in BALB/c nude mouse assessed as reduction in tumor volume at 50 mg/kg administered for 29 days by caliper method relative to control; format: functional; design: scale not given: the % may be the effect or the level left; settings: time 29 day
HepG2 [31] = experiment: Antitumor activity against human HepG2 cells xenografted in BALB/c nude mouse assessed as reduction in tumor volume at 100 mg/kg administered for 29 days by caliper method relative to control; format: functional; design: scale not given: the % may be the effect or the level left; settings: time 29 day
[32] = Toxicity in human HepG2 cells xenografted BALB/c nude mouse assessed as change in tumor weight at 50 to 100 mg/kg for 29 days; format: organism-based; settings: in vivo, 696 h, dose 50-100 mg/kg, time 29 day

With `COc1ccc(NS(=O)(=O)c2ccc3c(c2)c2ccc(OP(=O)([O-])[O-])cc2n3C)c(OC)n1.[Na+].[Na+]` the IC50 (HepG2 [1]) was 0.019 µM, the IC50 (Bel-7402) was 0.06 µM and the IC50 (MCF7) was 0.016 µM. The LD50 at 168 h [2] was 273 mg/kg, the inhibition in vivo at 25 mg/kg (HepG2 [3]) was 71.7% and the half-life [4] was 43.2 min. For the same compound, the Vd [5] was 0.24 L/kg, the AUClast [6] was 18449 ng·h/mL and the MRT last [7] was 10.2 min.
For `CC(=O)O[C@H]1C(=O)[C@@]2(C)[C@H]([C@H](OC(=O)c3ccccc3)[C@]3(O)C[C@H](OC(=O)[C@H](O)[C@@H](NC(=O)c4ccccc4)c4ccccc4)C(C)=C1C3(C)C)[C@]1(OC(C)=O)CO[C@@H]1C[C@@H]2O` [PACLITAXEL], the Activity (MDA-MB-231) was 36%, the Activity [8] was “Non-Toxic” and the inhibition in vivo at 10 mg/kg (HepG2 [9]) was 99.4%. For the same compound, the Activity [10] was “Non-Toxic” and the Activity (HepG2 [11]) was 59.6%.
For `COc1ccc(NS(=O)(=O)c2ccc3c(c2)c2ccc(O)cc2n3C)c(OC)n1`, the IC50 (HepG2 [1]) was 0.012 µM, the IC50 (Bel-7402) was 0.056 µM and the IC50 (MCF7) was 0.014 µM. For the same compound, the Cmax [12] was 22333 ng/mL, the Tmax [13] was 5 min and the “beta t1/2” value [14] was 108 min. It also gave an AUClast [15] of 15295 ng·h/mL and an MRTlast [16] of 76.2 min.
`COc1ccc(N(CCN2CCN(C)CC2)S(=O)(=O)c2ccc3c(c2)c2ccccc2n3C)c(OC)n1` gave an IC50 (HepG2 [1]) of 4.13 µM, an IC50 (Bel-7402) of 6.06 µM and an IC50 (MCF7) of 15 µM. The survival at 168 h [17] was 16.7%, the survival at 168 h [18] was 83.3% and the survival at 168 h [19] was 100%. It also gave a survival at 168 h [20] of 100%, an LD50 at 168 h [21] of 89.5 mg/kg and an Activity (HepG2 [22]) of 92.29 mm3. It also gave an Activity (HepG2 [23]) of 914.19 mm3, an inhibition in vivo at 10 mg/kg (HepG2 [24]) of 48.3% and an Activity [25] of 1.44 g. The inhibition in vivo at 5 mg/kg (HepG2 [26]) was 33.3%, the inhibition in vivo at 10 mg/kg (HepG2 [27]) was 60.2% and the Activity [28] was “Non-Toxic”.
Compound `COc1ccc(N(CCOP(=O)([O-])[O-])S(=O)(=O)c2ccc3c(c2)c2ccccc2n3C)c(OC)n1.[Na+].[Na+]` has an IC50 (HepG2 [1]) of 1.12 µM, an IC50 (Bel-7402) of 1.97 µM and an IC50 (MCF7) of 1.08 µM. For the same compound, the LD50 at 168 h [29] was 273 mg/kg, the Activity (HepG2 [30]) was 54.5% and the Activity (HepG2 [31]) was 70.1%. The Activity [32] was “Non-Toxic”.
